Experimental data taken from article PMC9271751, “Synthesis and Evaluation of Coumarin-Chalcone Derivatives as α-Glucosidase Inhibitors” (Frontiers in Chemistry, 2022).
Like-named read-outs stand apart in the source and are kept apart here.

Assays:
[1] = molecular target: T1, α-Glucosidase from Saccharomyces cerevisiae (EC 3.2.1.20) (Saccharomyces cerevisiae, UniProt P53341); experiment: biochemical
T1 construct: purchased Sigma-Aldrich
Protocol: Ethyl acetoacetate, salicylaldehyde and absolute ethanol were analytical pure grade and purchased from Aladdin (Shanghai) Reagent Co., Ltd. Piperidine; glacial acetic acid, petroleum ether and ethyl acetate were supplied by Titan (Shanghai) Technology Co., Ltd.; α-Glucosidase from Saccharomyces cerevisiae (EC 3.2.1.20), 4-nitrophenyl-α-D-[…] (p-NPG), and Dimethyl sulfoxide (DMSO) were supported by Sigma-Aldrich (United States) Chemical Co., Ltd. Melting points were tested on a micro melting-point instrument. ^1H NMR spectra were measured (CDCl3) by Bruker DPX-500 MHz AVANCE with TMS as an internal standard. Mass spectroscopy was performed on a (LCQTM). The absorbance was recorded by a micro-plate reader.
The α-glucosidase inhibitory activity assay of coumarin-chalcone derivatives 3 (a∼v) was conducted using p-NPG as a substrate. ([Pogaku et al., 2019]; [Saeedi et al., 2019]; [Xu et al., 2019]). 10 μl of the test compound and 10 μl of the enzyme (final concentration 0.1 U/ml) were added to 130 μl of PBS (0.1 M phosphate, pH 6.8), and incubated at 37°C for 10 min. Then p-NPG (final concentration 0.25 mM) was added and the absorbance change was measured by a micro-plate reader at 405 nm. All experiments were assayed four times. The percentage of inhibition was obtained using the formula: Inhibition (%) = […] × 100%, where OD1 and OD0 represent the absorbance value of the experimental group and the blank group respectively. […] The IC50 value of each compound was obtained from the fitting curve of inhibition vs. compound concentration.

[2] = molecular target: T1, α-Glucosidase from Saccharomyces cerevisiae (EC 3.2.1.20); experiment: α-Glucosidase inhibition kinetics (v vs. enzyme concentration, Lineweaver-Burk plots); type: biochemical; conditions: for Inhibition mechanism (inhibition type): Lineweaver-Burk double reciprocal plot, p-NPG 0.25-1 mM; for Inhibition mechanism (inhibition type) / Reversibility of inhibition: compound 0, 25, 30, 40 μM; for Reversibility of inhibition: plots of v vs. α-glucosidase concentration (0.075-0.15 U/mL); for KIS: enzyme-substrate complex, secondary plot of intercept vs. compound concentration
From the text: Generally, according to the type of inhibition, enzyme inhibitors can be divided into reversible inhibitors and irreversible inhibitors ([Abuelizz et al., 2019]). In order to obtain the principle of the combination of enzyme inhibitors and enzymes, it is necessary to study the interaction between enzyme inhibitors and enzymes. Compounds 3j, 3q and 3t with strongest inhibitory activity were chosen for the research of inhibition kinetics against α-glucosidase (the inhibitory mechanism analysis of compound 3t was shown in Figure 2 and figures for the inhibitory mechanism analysis of compounds 3j and 3q have been shown in the supporting information). A series of plots of enzymatic reaction rate (v) vs. α-glucosidase concentration in the presence of inhibitors were generated to identify the type of inhibition that is listed in Figure 1.
The inhibit type of inhibitors on α-glucosidase include four types, named competitive inhibition, non-competitive inhibition, mixed inhibition, and anti-competitive inhibition ([Abuelizz et al., 2019]). The inhibition modes of compounds 3j, 3q and 3t against α-glucosidase were investigated using Lineweaver-Burk double reciprocal plot.
The type of inhibition was identified by the plots of enzymatic reaction rate (V) vs. α-glucosidase concentration. The test method was similar to the above enzyme activity assay. In the presence of different concentrations of compounds 3j, 3q and 3t, respectively (0, 25, 30, and 40 μM), the absorbance change was detected under different concentrations of α-glucosidase (0.075, 0.1, 0.125, and 0.15 U/mL).
The inhibition mode was also detected using a similar method to that described above. In the presence of different concentrations of compounds 3j, 3q and 3t, respectively (0, 25, 30 and 40 μM), the absorbance change was measured under different concentrations of p-NPG (0.25, 0.5, 0.75, 1 mM). The inhibition mode of the inhibitor was obtianed using Lineweaver-Burk plots. The constant KI was obtained by secondary plots of the derivatives concentration (I) vs. Slope, constant KIS was obtained by secondary plots of the derivatives concentration (I) vs. Intercept.

[3] = p-NPG 0.25 mM, enzyme 0.1 U/ml, PBS pH 6.8, 37°C, read-out: IC50, α-glucosidase inhibitory activity

T1 sequence (P53341 whole entry): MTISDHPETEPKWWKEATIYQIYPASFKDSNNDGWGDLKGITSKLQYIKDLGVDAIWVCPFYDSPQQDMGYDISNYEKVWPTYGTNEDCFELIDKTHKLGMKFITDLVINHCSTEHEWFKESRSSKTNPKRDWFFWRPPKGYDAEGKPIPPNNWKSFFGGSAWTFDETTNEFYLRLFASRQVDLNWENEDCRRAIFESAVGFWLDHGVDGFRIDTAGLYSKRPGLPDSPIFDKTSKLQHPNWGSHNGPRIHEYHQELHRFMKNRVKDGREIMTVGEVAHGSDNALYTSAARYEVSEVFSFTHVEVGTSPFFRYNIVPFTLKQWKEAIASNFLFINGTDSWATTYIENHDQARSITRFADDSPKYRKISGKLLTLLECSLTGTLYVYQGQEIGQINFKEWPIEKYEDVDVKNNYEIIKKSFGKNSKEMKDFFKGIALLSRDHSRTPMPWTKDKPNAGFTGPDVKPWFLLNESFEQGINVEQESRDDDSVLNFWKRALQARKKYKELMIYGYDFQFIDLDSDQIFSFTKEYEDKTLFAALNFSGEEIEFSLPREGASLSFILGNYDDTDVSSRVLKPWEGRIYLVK

SMILES	IC50 [1, 3] [µM]	IC50 [1] [µM]	further results
O=C(/C=C/c1ccc(C(F)(F)F)cc1)c1cc2ccccc2oc1=O [Compound 3n, (E)-3-{3-[4-(trifluoromethyl)phenyl]acryloyl}-2H-chromen-2-one]	53.6 ± 1.95		
CSc1ccc(/C=C/C(=O)c2cc3ccccc3oc2=O)cc1 [Compound 3f, (E)-3-{3-[4-(methylthio)phenyl]acryloyl}-2H-chromen-2-one]	75.5 ± 0.98		
O=C(/C=C/c1ccc(Br)cc1)c1cc2ccccc2oc1=O [Compound 3t, (E)-3-[3-(4-bromophenyl)acryloyl]-2H-chromen-2-one]		24.1 ± 2.36	Ki [2]: 11 µM; Inhibition mechanism (inhibition type) [2]: mixed-type inhibition; Reversibility of inhibition [2]: reversible
COc1ccccc1/C=C/C(=O)c1cc2ccccc2oc1=O [Compound 3c, (E)-3-[3-(2-methoxyphenyl)acryloyl]-2H-chromen-2-one]	60.9 ± 2.74		
O=C(/C=C/c1cccc(F)c1)c1cc2ccccc2oc1=O [Compound 3h, (E)-3-[3-(3-fluorophenyl)acryloyl]-2H-chromen-2-one]		45.7 ± 1.28	
O=C(/C=C/c1ccccc1)c1cc2ccccc2oc1=O [Compound 3a, (E)-3-cinnamoyl-2H-chromen-2-one]		125.3 ± 1.18	
O=C(/C=C/c1cc2ccccc2[nH]1)c1cc2ccccc2oc1=O [Compound 3v, (E)-3-[3-( ^ 1 H-indol-2-yl)acryloyl]-2H-chromen-2-one]	103 ± 1.45		
COc1ccc(/C=C/C(=O)c2cc3ccccc3oc2=O)cc1 [Compound 3e, (E)-3-[3-(4-methoxyphenyl)acryloyl]-2H-chromen-2-one]	105 ± 1.98		
O=C(/C=C/c1cccc(Br)c1)c1cc2ccccc2oc1=O [Compound 3s, (E)-3-[3-(3-bromophenyl)acryloyl]-2H-chromen-2-one]		35.6 ± 2.18	
O=C(/C=C/c1ccccc1C(F)(F)F)c1cc2ccccc2oc1=O [Compound 3l, (E)-3-{3-[2-(trifluoromethyl)phenyl]acryloyl}-2H-chromen-2-one]	71.5 ± 2.14		
O=C(/C=C/c1cccs1)c1cc2ccccc2oc1=O [Compound 3u, (E)-3-[3-(thiophen-2-yl)acryloyl]-2H-chromen-2-one]	109 ± 2.69		
O=C(/C=C/c1ccc(F)c(F)c1)c1cc2ccccc2oc1=O [Compound 3k, (E)-3-[3-(3,4-difluorophenyl)acryloyl]-2H-chromen-2-one]	49.7 ± 3.28		
O=C(/C=C/c1ccc(Cl)cc1)c1cc2ccccc2oc1=O [Compound 3q, (E)-3-[3-(4-chlorophenyl)acryloyl]-2H-chromen-2-one]		29.7 ± 2.68	Ki [2]: 16.1 µM; Inhibition mechanism (inhibition type) [2]: mixed-type inhibition; KIS ([2]; inhibition constant): 20.34 µM; Reversibility of inhibition [2]: reversible
O=C(/C=C/c1ccccc1F)c1cc2ccccc2oc1=O [Compound 3g, (E)-3-[3-(2-fluorophenyl)acryloyl]-2H-chromen-2-one]		48.4 ± 1.42	
O=C(/C=C/c1ccccc1Br)c1cc2ccccc2oc1=O [Compound 3r, (E)-3-[3-(2-bromophenyl)acryloyl]-2H-chromen-2-one]		38.6 ± 1.87	
Cc1ccc(/C=C/C(=O)c2cc3ccccc3oc2=O)cc1 [Compound 3b, (E)-3-[3-(p-tolyl)acryloyl]-2H-chromen-2-one]	95.2 ± 1.35		
O=C(/C=C/c1cccc(C(F)(F)F)c1)c1cc2ccccc2oc1=O [Compound 3m, (E)-3-{3-[3-(trifluoromethyl)phenyl]acryloyl}-2H-chromen-2-one]	64.7 ± 1.82		
O=C(/C=C/c1ccc(F)cc1)c1cc2ccccc2oc1=O [Compound 3i, (E)-3-[3-(4-fluorophenyl)acryloyl]-2H-chromen-2-one]		35.68 ± 0.28	
O=C(/C=C/c1ccc(F)cc1F)c1cc2ccccc2oc1=O [Compound 3j, (E)-3-[3-(2,4-difluorophenyl)acryloyl]-2H-chromen-2-one]	30.3 ± 2.53		Inhibition mechanism (inhibition type) [2]: mixed-type inhibition; KIS ([2]; inhibition constant): 25.94 µM; Ki ([2]; inhibition constant, free enzyme, secondary plot of slope vs. compound concentration, read-out: KI): 19.5 µM; Reversibility of inhibition [2]: reversible
COc1cccc(/C=C/C(=O)c2cc3ccccc3oc2=O)c1 [Compound 3d, (E)-3-[3-(3-methoxyphenyl)acryloyl]-2H-chromen-2-one]	96.4 ± 1.37		
O=C(/C=C/c1ccccc1Cl)c1cc2ccccc2oc1=O [Compound 3o, (E)-3-[3-(2-chlorophenyl)acryloyl]-2H-chromen-2-one]		59.7 ± 1.73	
O=C(/C=C/c1cccc(Cl)c1)c1cc2ccccc2oc1=O [Compound 3p, (E)-3-[3-(3-chlorophenyl)acryloyl]-2H-chromen-2-one]		52.6 ± 2.45	
